# Experimental data as given in patent US11491128B2, “Reversible nitroxide derivatives of nitroalkenes that mediate nitrosating and alkylating reactions” (University of Pittsburgh—Of the Commonwealth System of …, priority 2016, dated 2022).
# Assays:
# [1] = UV-Vis analysis of NO2-CLA generation by decomposition of NO2—NO3—CLA at different pH (312 nm); assay type: physicochemical; conditions: 312 nm (FIG. 1)
# Experimental: Synthetic NO2—NO3—CLA standards were generated by performing independent reactions of 0.5 mg conjugated-9,11-linoleic acid (CLA, cat. no. UC-60A, Nu-Check Prep Inc., Elysian, Minn.) with 2 mM sodium nitrite (NaNO2) in 1 ml artificial gastric fluid for 1 h at 37° C., under continuous agitation. The lipid fraction was extracted by hexane, 50 μl were dried under a stream of nitrogen gas, dissolved in 300 μl methanol and decomposition of the NO2—NO3—CLA with generation of NO2-CLA was measured spectrophotometrically at 312 nm (FIG. 1). The addition of 10 μl acetic acid to the methanolic solution confirmed the stability of NO2—NO3—CLA at acidic pH (FIG. 1, diamond curve).
# [2] = N-nitrosation of 2,3-diaminonaphtalene (DAN) to 2,3-naphthotriazole (NAT), followed by HPLC-MS/MS; assay type: physicochemical; conditions: for formation of NAT: 20 μM DAN
# Experimental: To investigate if the degradation of NO2—NO3-CLA induced generation of nitrosative species, N-nitrosation of 2,3-diaminonaphtalene (DAN) to yield 2,3-naphthotriazole (NAT) was performed. Briefly, 25 μl synthetic NO2—NO3-CLA standards were dried under a stream of nitrogen gas, and resuspended in 1 ml of solvents at different polarity with 20 μM DAN. Then, formation of NAT was followed over 60 min by HPLC-MS/MS (FIG. 4).
# Analysis of NAT was performed by HPLC-MS/MS using an analytical C18 Luna column (2×20 mm, 5 μm, Phenomenex) at a 0.75 ml/min flow rate, with a gradient solvent system consisting of water containing 0.1% acetic acid (solvent A) and acetonitrile containing 0.1% acetic acid (solvent B). Samples were chromatographically resolved using the following gradient program: 10-100% solvent B (0-3.3 min); 100% solvent B (3.3-4.2 min) followed by 0.8 min re-equilibration to initial conditions. An API4000 Q-trap triple quadrupole mass spectrometer (Applied Biosystems, San Jose, Calif.), equipped with an electrospray ionization source (ESI) in positive mode, was used with the following parameters: declustering potential, 70 V; entrance potential 5; collision cell exit potential 10; collision energy 35; and a desolvation temperature of 650° C. NAT was analyzed using the MRM transition 170.1/115.1.
structure (smiles),measurement,setting,value
"CCCCCCC(/C=C/C(CCCCCCCC(=O)O)[N+](=O)[O-])O[N+](=O)[O-] (centres unmarked) [NO2—NO3-CLA, (E)-9-nitro-12-(nitrooxy)octadec-10-enoic acid]",degradation of NO2—NO3—CLA with generation of NO2-CLA,[1]; methanolic solution + 10 μl phosphate buffer 50 mM pH 7.4 or 10 μl ammonium hydroxide,pH-dependent
same,rate of NO2-CLA generation on pH increase from pH 7.4 to more basic pH,[1]; phosphate buffer pH 7.4 versus ammonium hydroxide,faster generation of NO2-CLA
same,formation of NAT,"[2]; dissolved in methanol, over 60 min (FIG. 4, square curve)",none formation of NAT was observed
same,stability of NO2—NO3-CLA in basic pH,"[2]; phosphate buffer 50 mM, pH 7.4 with 100 μM DTPA",instability
same,formation of NAT,"[2]; phosphate buffer 50 mM, pH 7.4 with 100 μM DTPA, over 60 min (FIG. 4, circle curve)",time dependent generation of NAT
